Results published in ChEMBL document CHEMBL3392926, “Antiprotozoal Activity Profiling of Approved Drugs: A Starting Point toward Drug Repositioning”.
Where “and” joins values, the source holds several entries; their conditions need not be identical. Equal entries are not always repeated.

Columns and labels:
Leishmania donovani [1] = assay: microbe, parasite or virus in culture; type: functional, organism-based, MHOM/ET/67/L82
Trypanosoma cruzi = assay: microbe, parasite or virus in culture; type: functional, organism-based, Tulahuen C4 (LacZ)
cells [2] = type: functional, cell-based; conditions: Mus musculus, NMRI, BalbC or CD1 mice, Macrophage, 96 h
Leishmania donovani [3] = assay: microbe, parasite or virus in culture; type: functional, organism-based, MHOM/ET/67/L82; remark: listed apart in the source
[4] = tested on: Trypanosoma brucei rhodesiense; assay: microbe, parasite or virus in culture; type: functional, organism-based, STIB 900
cells [5] = type: functional, cell-based; conditions: Rattus norvegicus, L6, 72 h
Plasmodium falciparum = assay: microbe, parasite or virus in culture; type: functional, organism-based, K1
[6] = Leishmania donovani, MHOM/ET/67/L82, 96 h
[7] = Trypanosoma cruzi, Tulahuen C4 (LacZ), 96 h
[8] = Leishmania donovani, MHOM/ET/67/L82, 72 h
[9] = Trypanosoma brucei, STIB 900, 72 h
[10] = Plasmodium falciparum, K1, 72 h

Molecule	IC50 (Leishmania donovani [1]; [6]) [µM]	IC50 (Trypanosoma cruzi; [7]) [µM]	IC50 (cells [2]) [µM]	IC50 (Leishmania donovani [3]; [8]) [µM]	IC50 [4, 9] [µM]	IC50 (cells [5]) [µM]	IC50 (Plasmodium falciparum; [10]) [µM]	IC50 (Leishmania donovani [3]) [µM]	IC50 [4] [µM]	IC50 (Plasmodium falciparum)	IC50 (Leishmania donovani [1]) [µM]	IC50 (Trypanosoma cruzi) [µM]
COC(=O)N[C@H](C(=O)N[C@@H](Cc1ccccc1)[C@@H](O)CN(Cc1ccc(-c2ccccn2)cc1)NC(=O)[C@@H](NC(=O)OC)C(C)(C)C)C(C)(C)C [ATAZANAVIR]	> 37.5	33.3	> 37.5	24.1	12.7	46.5	7.95	–	–	–	–	–
NNC(=O)c1ccncc1 [ISONIAZID]	> 219	> 656	> 219	> 656	> 656	> 656	–	> 729	> 729	> 36.5 µM and 246 µM	–	–
CC(C)(C)NC(=O)[C@@H]1CN(Cc2cccnc2)CCN1C[C@@H](O)C[C@@H](Cc1ccccc1)C(=O)N[C@H]1c2ccccc2C[C@H]1O	> 42.3	93.5	> 42.3	> 141	48.2	> 141	6.03	–	–	–	–	–
COc1ccc(Cl)cc1C(=O)NCCc1ccc(S(=O)(=O)NC(=O)NC2CCCCC2)cc1 [GLYBURIDE]	> 60.7	93.9	> 60.7	9.8	87.7	116	38.3	–	–	–	–	–
CC(C)(C)NC(=O)[C@@H]1CC2CCCCC2CN1C[C@@H](O)[C@H](Cc1ccccc1)NC(=O)[C@H](CC(N)=O)NC(=O)c1ccc2ccccc2n1 (stereo not given in full)	> 44.7	17.1	> 44.7	77.4	12.3	18.2	11.9	–	–	–	–	–
Fc1ccc([C@@H]2CCNC[C@H]2COc2ccc3c(c2)OCO3)cc1 [PAROXETINE]	> 9.11	14.4	30.4	> 273	1.13	13.8	9.23	–	–	–	–	–
AURANOFIN	–	–	–	–	–	–	–	0.11	0.01	1.67 µM	> 1.47	2.27
Cc1cccc(N(C)C(=S)Oc2ccc3ccccc3c2)c1 [TOLNAFTATE]	50.1	20	> 97.6	4.33	69.3	84.6	19	–	–	–	–	–
CN(C)c1ccc(O)c2c1C[C@H]1C[C@H]3[C@H](N(C)C)C(O)=C(C(N)=O)C(=O)[C@@]3(O)C(O)=C1C2=O [MINOCYCLINE]	> 21.9	22.3	> 21.9	45.7	36.6	9.42	3.58	–	–	–	–	–
Cc1c(C)c2c(c(C)c1O)CCC(C)(COc1ccc(CC3SC(=O)NC3=O)cc1)O2 (stereo not given) [TROGLITAZONE]	> 67.9	32.6	> 67.9	4.26	59.3	80.6	7.27	–	–	–	–	–
C#C[C@]1(O)CC[C@H]2[C@@H]3CCC4=Cc5oncc5C[C@]4(C)[C@H]3CC[C@@]21C [DANAZOL]	> 29.6	6.25	> 29.6	10.2	45.9	32	14.1	–	–	–	–	–
C[C@@H](c1ncncc1F)[C@](O)(Cn1cncn1)c1ccc(F)cc1F [VORICONAZOLE]	> 85.9	11.2	> 85.9	> 286	> 286	195	> 143	–	–	–	–	–
CN(C)CCCN1c2ccccc2Sc2ccc(Cl)cc21 [CHLORPROMAZINE]	> 9.41	17.2	31.4	48.5	1.25	12.3	3.03	–	–	–	–	–
CN(C)CCCN1c2ccccc2Sc2ccc(C(F)(F)F)cc21 [TRIFLUPROMAZINE]	> 8.51	15	28.4	79.8	1.42	18.5	2.72	–	–	–	–	–
O=C(N/N=C/c1ccc([N+](=O)[O-])o1)c1ccc(O)cc1 [NIFUROXAZIDE]	> 10.9	0.23	36.2	2.83	0.03	12.3	7.82	–	–	–	–	–
CNCCC=C1c2ccccc2CCc2ccccc21 [NORTRIPTYLINE]	> 11.4	22.9	38	> 342	1.17	27.9	0.58	–	–	–	–	–

Molecule	IC50 (Leishmania donovani [1]; [6]) [µM]	IC50 (Trypanosoma cruzi; [7]) [µM]	IC50 (cells [2]) [µM]	IC50 (Leishmania donovani [3]; [8]) [µM]	IC50 [4, 9] [µM]	IC50 (cells [5]) [µM]	IC50 (Plasmodium falciparum; [10]) [µM]	IC50 (Leishmania donovani [3]) [µM]	IC50 [4] [µM]	IC50 (Plasmodium falciparum)	IC50 (Leishmania donovani [1]) [µM]	IC50 (Trypanosoma cruzi) [µM]
CC[C@@H]1OC(=O)[C@@H](C)[C@H](O[C@H]2C[C@@](C)(OC)[C@@H](O)[C@H](C)O2)[C@@H](C)[C@H](O[C@H]2O[C@@H](C)C[C@@H](N(C)C)[C@@H]2O)[C@@](C)(O)C[C@H](C)C(=O)[C@@H](C)[C@H](O)[C@@]1(C)O	> 39.9	114	> 39.9	> 133	72.1	92.2	9.91	–	–	–	–	–
CC(=O)[C@H]1CC[C@@H]2[C@@H]3CC[C@@H]4C[C@](C)(O)CC[C@]4(C)[C@H]3CC[C@@]12C	> 30.1	65	> 90.2	42.5	5.47	23.5	> 15	–	–	–	–	–
c1ccc(-c2ccc(C(c3ccccc3)n3ccnc3)cc2)cc1 (stereo not given) [BIFONAZOLE]	> 32.2	0.003	> 32.2	5.48	26.8	39.3	3.18	–	–	–	–	–
CO[C@H]1/C=C/O[C@@]2(C)Oc3c(C)c(O)c4c(O)c(cc(O)c4c3C2=O)NC(=O)/C(C)=C\C=C\[C@H](C)[C@H](O)[C@@H](C)[C@@H](O)[C@@H](C)[C@H](OC(C)=O)[C@@H]1C [RIFAMYCIN]	> 13.9	50	41.6	1.5	0.99	15.7	0.55	–	–	–	–	–
CCC(C)n1ncn(-c2ccc(N3CCN(c4ccc(OCC5COC(Cn6cncn6)(c6ccc(Cl)cc6Cl)O5)cc4)CC3)cc2)c1=O (stereo not given) [ITRACONAZOLE]	> 1.42	0.004	4.25	2.42	8.53	1.11	1.37	–	–	–	–	–
Cc1cccc(C)c1OCC(=O)N[C@@H](Cc1ccccc1)[C@@H](O)C[C@H](Cc1ccccc1)NC(=O)[C@H](C(C)C)N1CCCNC1=O [LOPINAVIR]	> 47.7	15.4	> 47.7	11.8	10.8	18.9	1.92	–	–	–	–	–
CO[C@H]1/C=C/O[C@]2(C)Oc3c(C)c(O)c4c(O)c(c5c(nc6cc(C)ccn65)c4c3C2=O)NC(=O)/C(C)=C\C=C\[C@H](C)[C@H](O)[C@@H](C)[C@@H](O)[C@H](C)[C@H](OC(C)=O)[C@H]1C	> 38.2	40.2	> 38.2	15	17.1	88	0.92	–	–	–	–	–
O=C(O)c1cn(C2CC2)c2cc(N3CCNCC3)c(F)cc2c1=O [CIPROFLOXACIN]	> 90.5	92	> 90.5	> 302	35.9	118	13.2	–	–	–	–	–
C[C@H]1c2cccc(O)c2C(O)=C2C(=O)[C@]3(O)C(=O)/C(=C(/N)O)C(=O)[C@@H](N(C)C)[C@@H]3[C@@H](O)[C@@H]21	> 22.5	39.1	67.5	24.1	63.7	14.5	4.48	–	–	–	–	–
O=C(Nc1ccc([N+](=O)[O-])cc1Cl)c1cc(Cl)ccc1O [NICLOSAMIDE]	> 0.31	2.49	1.01	0.15	1.67	2.3	1.14	–	–	–	–	–
C[C@H]1[C@@H](OC(=O)CCC(=O)O)O[C@@H]2O[C@]3(C)CC[C@H]4[C@H](C)CC[C@@H]1[C@@]24OO3	> 7.8	8.97	> 7.8	0.35	16.8	0.78	0.003	–	–	–	–	–
Nc1nc(N)c2nc(-c3ccccc3)c(N)nc2n1	> 11.8	22.7	> 11.8	–	21.7	8.53	17.2	–	–	–	–	–
CO[C@H]1/C=C/O[C@@]2(C)Oc3c(C)c(O)c4c(O)c(c(/C=N/N5CCN(C)CC5)c(O)c4c3C2=O)NC(=O)/C(C)=C\C=C\[C@H](C)[C@H](O)[C@@H](C)[C@@H](O)[C@H](C)[C@H](OC(C)=O)[C@H]1C	> 36.5	> 109	> 36.5	1.53	16.7	75.2	0.1	–	–	–	–	–
CN1CC(=O)N2[C@H](c3ccc4c(c3)OCO4)c3[nH]c4ccccc4c3C[C@@H]2C1=O	> 77	8.6	> 77	40.1	97.6	221	> 12.8	–	–	–	–	–
Nc1ccc(S(=O)(=O)Nc2ncccn2)cc1 [SULFADIAZINE]	> 12	24.9	40.1	–	18.4	20.6	1.44	–	–	–	–	–
CC(C)c1nc(CN(C)C(=O)N[C@H](C(=O)N[C@@H](Cc2ccccc2)C[C@H](O)[C@H](Cc2ccccc2)NC(=O)OCc2cncs2)C(C)C)cs1 [RITONAVIR]	> 41.6	20.7	–	8.97	4.3	–	16.2	–	–	–	–	–
